From patent US12492403B2, “Aptamers and the use thereof in the treatment of cancer” (FUNDACIÓN PARA LA INVESTIGACIÓN BIOMÉDICA DEL HOSPITAL …, priority 2018, dated 2025)

Legend:
Type in all cases: cell-based, human
MDA-MB-231 cells [1] = assay: Apoptosis by annexin V/propidium iodide flow cytometry; conditions: MDA-MB-231, working concentration 400 nM, 24 hours
Procedure: (§1) FIGS. 10A-10C. Analysis of the effect of the aptamer on apoptosis with annexin V in breast cell lines. MCF7 (FIG. 10A), MDA-MB-231 (FIG. 10B), and MDA-MB-468 (FIG. 10C) cells were seeded in 6-well plates at a density of 2.5×10^5 cells/well and transfected at 24 hours with apMNKQ2 at the set working concentrations. After 24 hours, the cells were collected, fixed, and stained with annexin V-FITC and propidium iodide. Finally, they were analyzed by cytometry. The bars represent the mean±SEM of 3 independent experiments (*p<0.05, **p<0.01, and ***p<0.001).
(§2) The assays were carried out by seeding 5×10^5 cells/well in 6-well plates and transfecting the cells 24 hours later. After 24 hours of transfection, the cells were collected and washed twice with PBS. They were then resuspended in a 1× binding buffer and left at a concentration of 1×10^6 cells/mL. Aliquots of 10^5 cells were separated from the preceding solution, as many as the number of treatments, and the annexin V and propidium iodide dyes were added to obtain: a double negative control (without labeling, living cells), a double positive for both types of labeling (late apoptotic cells and necrotic cells will be labeled), and cells labeled separately with annexin V and propidium iodide. They were incubated in darkness for 15 minutes at room temperature and brought to a final volume of 500 μL with a 1× binding buffer. Finally, the cells were passed through a flow cytometer (BD FACSCalibur™, BDBiosciences, USA) within a time no more than 1 hour after labeling. The data obtained was analyzed by means of the Flowing software 2.5.1 program.
(§3) The translocation of the […] from the inner face of the plasma membrane of the cells to the outer face by translocases is a process characteristic of apoptotic cells. To study this process, assays with annexin V-fluorescein (FITC) were performed in three cell lines. This recombinant protein binds to the phosphatidylserine residues exposed on the outer face of the plasma membrane of apoptotic cells. Together with said recombinant protein, propidium iodide (IP), an impermeable DNA marker that only enters cells when the membrane is compromised, was also used. To perform these assays, the cells were transfected with apMNKQ2 and with the control aptamer AT at the working concentrations. At 24 hours, the cells were collected, fixed, and stained with annexin V-FITC and propidium iodide. Finally, the cells were analyzed by means of flow cytometry and differentiation was made between non-apoptotic cells (annexin V-FICT negative/IP negative), apoptotic cells (annexin V-FICT positive/IP negative), late apoptotic cells (annexin V-FICT positive/IP positive), and necrotic cells (annexin V-FITC negative/IP positive).

MCF7 cells [2] = assay: as above; conditions: MCF7, working concentration 150 nM, 24 hours
Procedure: as §1, §2, §3

MDA-MB-468 cells [3] = assay: as above; conditions: MDA-MB-468, working concentration 50 nM, 24 hours
Procedure: as §1, §2, §3

MDA-MB-231 cells [4] = assay: Colony formation assay; conditions: MDA-MB-231, 400 nM, colonies quantified 9-12 days after seeding
Procedure: (§4) FIGS. 12A & 12B. Effect of apMNKQ2 on cell clonogenicity. MCF7, MDA-MB-231, and MDA-MB-468 cells were seeded in 24-well plates at a density of 3×10^4 cells/well and transfected at 24 hours with apMNKQ2 at the previously established working concentrations (FIG. 12A). After 24 hours, the cells were collected, counted, and seeded in 6-well plates with 1000 cells/well for MCF7 and MDA-MB-231 and with 5000 cells/well for MDA-MB-468 (FIG. 12B). The boxes represent the mean±the maximum and minimum of 4-5 independent experiments (*p<0.05 and **p<0.01 with respect to the control aptamer AT).
(§5) To perform these assays, 3×10^4 cells/well were seeded in 24-well plates with every 2 wells being considered an experimental point. At 16-24 hours, the cells were transfected with apMNKQ2 or the control aptamer. At 16-24 hours post-transfection, the cells of every two wells were pooled, resuspended in the corresponding medium, counted, and after performing the suitable dilutions, reseeded 1×10^3 or 5×10^3 cells/well in duplicate in 6-well plates. These plates were left in the incubator with a moisture-saturated environment at 37° C. and 5% CO2/[…] for 8-9 days. After this time, the colonies were fixed with methanol (Merck, Germany) for 10 minutes, stained with 0.02% giemsa (Sigma-Aldrich, USA) for 30 minutes, washed with water to eliminate the remaining dye, and left to dry at room temperature. To count the colonies, a colony counter pen (Heathrow Scientific® LLC, United Kingdom) and a magnifying glass (1.75×) (Bel-Art Scienceware, USA) were used. The results were expressed in number of colonies and normalized in percentage with respect to the control.
(§6) For these assays, 1000 cells/well in 6-well plates had previously been established for the MCF7 and MDA-MB-231 lines, however, the PE of the MDA-MB-468 cells was lower (11.5±5.3%), so 5000 cells were seeded. The cells were transfected with apMNKQ2 and the control AT, and collected and reseeded at 24 hours to perform the colony formation assay. The colonies were quantified 9-12 days after seeding. […]

MCF7 cells [5] = assay: Colony formation assay; conditions: MCF7, 150 nM, colonies quantified 9-12 days after seeding
Procedure: as §4, §5, §6

MDA-MB-468 cells [6] = assay: Colony formation assay; conditions: MDA-MB-468, 50 nM, colonies quantified 9-12 days after seeding
Procedure: as §4, §5, §6

5′TGGGGTGGGCGGGCGGGGGTGGGGGTGGT-3′ (DNA, backbone and methylation of C not given here; further chemistry not fully specified) [apMNKQ2]
induction of apoptosis (annexin V-FITC/propidium iodide) (MDA-MB-231 cells [1]): capable of inducing apoptosis | induction of apoptosis (annexin V-FITC/propidium iodide) (MCF7 cells [2]): capable of inducing apoptosis | late apoptosis with respect to the control (MCF7 cells [2]): statistically significant | induction of apoptosis (annexin V-FITC/propidium iodide) (MDA-MB-468 cells [3]): greater and statistically significant | inhibition in colony formation with respect to control aptamer AT (MDA-MB-231 cells [4]): statistically significant | inhibition in colony formation with respect to control aptamer AT (MCF7 cells [5]): statistically significant | inhibition in colony formation with respect to control aptamer AT (MDA-MB-468 cells [6]): statistically significant
